{
  "source": "patent US20080108706A1",
  "about": "“Chemical resection of pancreas” (priority 1999, published 2008)",
  "key": {"[1]": {"system": "Pancreatic Ductal Adenocarcinoma #03", "assay": "Evaluation against early stage pancreatic ductal adenocarcinoma #03 in BDF mice", "format": "in vivo", "text": "Male BDF mice (12 weeks old, weight approximately 28.9 g) were implanted with the pancreatic ductal cell carcinoma #03 3 days before beginning treatment with (HO)2DEHSPM."}, "[2]": {"assay": "Non-tumor-bearing toxicity controls, same regimens", "format": "in vivo"}, "[3]": {"system": "pancreatic native polyamine pools", "assay": "Tissue drug and native polyamine levels (pancreas, liver) in treated dogs", "format": "in vivo, beagles", "text": "The two dogs (#490 and 494) were fed a prescription canned and dry dog food and were supplemented with Viokase, a pancreatic enzyme preparation, by mixing three tablets with food or by oral administration immediately before each feeding. The dogs were maintained on this regimen for approximately three weeks. During this time, their weight and blood chemistries were closely monitored. The Viokase supplementation was then stopped and the same parameters were again evaluated. One week after the Viokase administration had ceased, the animals were euthanized and tissues were taken for histology and for the determination of tissue polyamine levels.\nAs the pancreatic insufficiency side-effect that was observed after the administration of the (R,R)—(HO)2DEHSPM to the beagles may have been related to the (R,R)-chirality of the molecule, the (S,S)-enantiomer was synthesized and was compared in a head-to-head fashion with the (R,R)-enantiomer. To perform this experiment, five male beagles approximately 6-8 months of age were obtained from Harlan Sprague Dawley. There were provided with food and water ad libitum and were allowed to acclimate to their new surroundings for two weeks. The animals were weighed prior to starting drug administration and were weighed once per week during the drug dosing period. A CBC and chemistry panel and a Holter monitor were performed once per week. In addition to the usual tests, additional pancreatic function-specific tests were also performed. These additional evaluations included a fecal trypsin test, examination of the feces for fecal fat and serum trypsin-like immunoreactivity determinations. It was hoped that these signs of pancreatic insufficiency would only appear in the animals given the (R,R)-enantiomer and would not be observed in the dogs that were given the (S,S)-molecule. The pancreatic insufficiency may not become evident until approximately 7-8 weeks post-drug. At the conclusion of the experiment, all of the animals were sacrificed and the histology and tissue polyamine levels were determined.\n• 1. Dogs #468 and 500 were given (R,R)—(HO)2DEHSPM subcutaneously twice daily for 13 days. • 2. They were fed Purina Dog Chow ad libitum and given free access to water. • 3. Polyamine levels in the pancreas were also analyzed at several time points post-drug. • 4. At the start of the experiment, dog #468 weighed 14.4 kg and dog #500 weighed 12.8 kg. The latter animal's weight never exceeded 13.2 kg. At the end of the drug dosing period, dog #468 weighed 13.0 kg, a loss of 1.4 kg; dog #500 weighed 13.2 kg, a gain of 0.4 kg. • 5. […] The pancreatic native polyamine pools (most especially SPD) were markedly diminished compared to untreated control tissue: [SPM]control=3,985 μm v. [SPM10-days post-treatment=2,548 μm (64% of control) [SPD]control=2,820 μm v [SPD]10-days post-treatment=721 μm (25.6% of control) • 6. Dog #468 was bright, alert and responsive until day thirteen of drug administration. […] The dog was fed boiled chicken and rice, as well as Nutrical (a caloric supplement) and cat food and was slowly weaned back to regular dog food. Frank and/or occult blood was found in the dog's stool until about 17-days post-drug. • 7. Dog #500 was bright, alert and responsive throughout the experiment. […] However, stool consistency had normalized by one week post-drug. • 8. […] The inability to digest fats was confirmed when this test was repeated and the fatty meal was supplemented with Viokase (a pancreatic enzyme supplement). […] (2.15 mg/kg every 12 hours) for 13 days • Route: subcutaneously • 1. Dogs #440 and 476 were given (S,S)— (HO)2DEHSPM subcutaneously twice daily for 13 days. • […]. They were fed Purina Dog Chow ad libitum and given free access to water. • 3. At the start of the experiment, dog #440 weighed 11.8 kg.\nTwo animals were also treated with DEHSPM at a dose equimolar to the (HO)2DEHSPM dosage and sacrificed at 1- and 75-days after the final treatment. […]"}, "[4]": {"system": "pancreas", "assay": "Pancreas anatomy and function in DEHSPM-treated animals", "format": "in vivo", "conditions": "equimolar dose", "experimental": "Two animals were also treated with DEHSPM at a dose equimolar to the (HO)2DEHSPM dosage and sacrificed at 1- and 75-days after the final treatment. […] At 1-day post-treatment, the total amount of drug: (parent+metabolites)1-day post-treatment=951 μm. […] At 75-days post-treatment, a substantial amount of DEHSPM remains in the pancreas: (parent+metabolites)75-days post-treatment=595 μm.\nThe nearly normal polyamine pools are mirrored by the anatomy."}, "[5]": {"conditions": "group 2, tumor-bearing, IV QD 3, 4, 6-9, 14, 17, 18, total dosage 240 mg/kg"}, "[6]": {"conditions": "group 2, tumor-bearing, total dosage 240 mg/kg IV"}, "[7]": {"conditions": "group 4, tumor-bearing, IV QD 3-18, total dosage 205 mg/kg"}, "[8]": {"conditions": "group 4, tumor-bearing, total dosage 205 mg/kg IV"}, "[9]": {"conditions": "group 6, tumor-bearing, total dosage 102.5 mg/kg IV"}, "[10]": {"conditions": "group 3, NTB, IV QD 3, 4, 6-9, 14, 17, 18, total dosage 240 mg/kg"}, "[11]": {"conditions": "group 3, NTB, total dosage 240 mg/kg IV"}, "[12]": {"conditions": "group 5, NTB, IV QD 3-18, total dosage 205 mg/kg"}, "[13]": {"conditions": "group 5, NTB, total dosage 205 mg/kg IV"}, "[14]": {"conditions": "group 7, NTB, IV QD 3-18, total dosage 102.5 mg/kg"}, "[15]": {"conditions": "group 7, NTB, total dosage 102.5 mg/kg IV"}, "[16]": {"conditions": "1-day post-treatment, equimolar dose"}, "[17]": {"conditions": "75-days post-treatment, equimolar dose"}},
  "data": [
    {"smiles": "CCNCCCCNCCCCNCCCCNCC", "note": "[DEHSPM, reference compound]", "values": [
      {"measurement": "Mean Body Wt. Loss", "setting": "[1]; [5]", "result": "−11.2", "unit": "g/mouse"},
      {"measurement": "Percent Body Wt. Loss", "setting": "[1]; [5]", "result": "−38.0", "unit": "%"},
      {"measurement": "Day of Wt. Loss Nadir", "setting": "[1]; [6]", "result": 35, "unit": "days"},
      {"measurement": "Drug Deaths (days of death)", "setting": "[1]; [6]", "result": "0/5"},
      {"measurement": "Mean Body Wt. Loss", "setting": "[1]; [7]", "result": "−8.6", "unit": "g/mouse"},
      {"measurement": "Percent Body Wt. Loss", "setting": "[1]; [7]", "result": "−29.0", "unit": "%"},
      {"measurement": "Day of Wt. Loss Nadir", "setting": "[1]; [8]", "result": 35, "unit": "days"},
      {"measurement": "Drug Deaths (days of death)", "setting": "[1]; [8]", "result": "0/5"},
      {"measurement": "Mean Body Wt. Loss", "setting": "[1]; group 6, tumor-bearing, IV QD 3-18, total dosage 102.5 mg/kg", "result": "−0.4", "unit": "g/mouse"},
      {"measurement": "Day of Wt. Loss Nadir", "setting": "[1]; [9]", "result": 7, "unit": "days"},
      {"measurement": "Drug Deaths (days of death)", "setting": "[1]; [9]", "result": "0/5"},
      {"measurement": "Mean Body Wt. Loss", "setting": "[2]; [10]", "result": "−8.5", "unit": "g/mouse"},
      {"measurement": "Percent Body Wt. Loss", "setting": "[2]; [10]", "result": "−30.0", "unit": "%"},
      {"measurement": "Day of Wt. Loss Nadir", "setting": "[2]; [11]", "result": 35, "unit": "days"},
      {"measurement": "Drug Deaths (days of death)", "setting": "[2]; [11]", "result": "0/2"},
      {"measurement": "Mean Body Wt. Loss", "setting": "[2]; [12]", "result": "−7.5", "unit": "g/mouse"},
      {"measurement": "Percent Body Wt. Loss", "setting": "[2]; [12]", "result": "−26.0", "unit": "%"},
      {"measurement": "Day of Wt. Loss Nadir", "setting": "[2]; [13]", "result": 35, "unit": "days"},
      {"measurement": "Drug Deaths (days of death)", "setting": "[2]; [13]", "result": "0/2"},
      {"measurement": "Mean Body Wt. Loss", "setting": "[2]; [14]", "result": "−1.0", "unit": "g/mouse"},
      {"measurement": "Percent Body Wt. Loss", "setting": "[2]; [14]", "result": "−3.0", "unit": "%"},
      {"measurement": "Day of Wt. Loss Nadir", "setting": "[2]; [15]", "result": 23, "unit": "days"},
      {"measurement": "Drug Deaths (days of death)", "setting": "[2]; [15]", "result": "0/2"},
      {"measurement": "total amount of drug (parent+metabolites) in pancreas", "setting": "[3]; 1-day post-treatment, dose equimolar to the (HO)2DEHSPM dosage", "result": 951, "unit": "μm"},
      {"measurement": "[SPD] in pancreas", "setting": "[3]; [16]", "result": 863, "unit": "μm"},
      {"measurement": "[SPD] in pancreas, % of control", "setting": "[3]; [16]", "result": "30.6 % of control"},
      {"measurement": "[SPM] in pancreas", "setting": "[3]; [16]", "result": "2,770 μm"},
      {"measurement": "[SPM] in pancreas, % of control", "setting": "[3]; [16]", "result": "69.5 % of control"},
      {"measurement": "PUT in pancreas", "setting": "[3]; [17]", "result": 60, "unit": "μm"},
      {"measurement": "[SPD] in pancreas", "setting": "[3]; [17]", "result": "1,572 μm"},
      {"measurement": "[SPD] in pancreas, % of control", "setting": "[3]; [17]", "result": "55.7 % of control"},
      {"measurement": "[SPM] in pancreas", "setting": "[3]; [17]", "result": "3,162 μm"},
      {"measurement": "[SPM] in pancreas, % of control", "setting": "[3]; [17]", "result": "79.3 % of control"},
      {"measurement": "drug (parent+metabolites) in pancreas", "setting": "[3]; [17]", "result": 595, "unit": "μm"},
      {"measurement": "pancreas anatomy", "setting": "[4]; 75-days post-treatment", "result": "essentially normal macroscopically and microscopically"},
      {"measurement": "exocrine and endocrine pancreatic functions", "setting": "[4]", "result": "appeared normal"}
    ]}
  ]
}
